For series [1] the following is noted: cited from earlier work; for neurological side effects: adult mice, Andersson et al. 2004; for CNS penetration: mouse, in vivo.
The subject of the next series is GSL levels. The following applies: mice; Platt 1997; cited from earlier work.
Series [2] has as its system mCherry-expressing M. bovis BCG. The class given is cell-based.
Series [3] has as its system sarco-endoplasmic reticulum Ca^2+-ATPase (SERCA). The following applies: Bilmen et al. 2001; cited from earlier work.
The next series concerns BCG. The class given is cell-based, M. bovis BCG.
For the next series, the system named is ER/neutral Ca^2+ store. The series is described as follows: Cytosolic Ca^2+ / ER Ca^2+ store content probed with ionomycin. The class given is cell-based.
Series [4] deals with lysosomal expansion/storage. As to the kind of experiment: Lysotracker fluorescence (lysosomal expansion/storage). The conditions noted are these: FIG. 6B. The class given is cell-based. On the procedure: Cells were live stained with 50 nM Lysotracker green (Molecular Probes) in PBS at room temperature for 30 min prior to washing.
A further series concerns GSL biosynthesis. The conditions noted are these: cited from earlier work.
The subject of series [5] is total ganglioside and GM1 content. The conditions noted are these: Kasperzyk et al. 2005; cited from earlier work.
The conditions of series [6]: mouse models of GSL storage diseases; cited from earlier work.
The next series relates to NPC phenotypes. The class given is cell-based.
A further series deals with LE/Lys Ca^2+. In kind it is cell-based.
The subject of the next series is GSL. The class given is cell-based.
The test system of series [7] is M. smegmatis. As to the kind of experiment: Clearance of M. smegmatis in wild-type mouse macrophages. The class given is cell-based, Mycobacterium smegmatis. The following applies: U18666A-treated wild-type mouse macrophages; FIG. 13.
The test system of series [8] is M. smegmatis. The series is described as follows: Clearance of M. smegmatis in primary human macrophages. The conditions noted are these: primary human macrophages treated with U18666A; FIG. 14. In kind it is cell-based, Mycobacterium smegmatis.
For series [9], the system named is M. smegmatis. The series is described as follows: Clearance of M. smegmatis in RAW 246.7 cells. In kind it is cell-based, Mycobacterium smegmatis. The following applies: RAW 246.7 cells incubated with U18666A (1 μg/ml, 48 hours) prior to infection; relative to untreated cells; FIG. 12.
The test system of the next series is NPC1. The series is described as follows: TDM on bone marrow-derived macrophages from NPC1 heterozygous mice. The class given is cell-based, mouse.

As for `CCCCN1C[C@H](O)[C@@H](O)[C@H](O)[C@H]1CO` [miglustat, N-butyldeoxynojirimycin], in series [1], the neurological side effects result is recorded as “not to cause neurological side effects” and the CNS penetration entry was “penetrate the CNS”. Also, in the series with GSL levels, the “duration of treatment after which the effect on GSL levels stabilizes” value is on record as 10 days and the “onset of decrease in GSL levels” value is “measurable decrease in GSL levels within a day of treatment”. Also, the “mycobacterial clearance, agent alone” value in series [2] is “neither of these molecules alone promoted mycobacterial clearance”.

On to `COc1cc(/C=C/C(=O)CC(=O)/C=C/c2ccc(O)c(OC)c2)ccc1O` [curcumin], for which the “Ca^2+ uptake by SERCA” value in series [3] is “inhibits Ca^2+ uptake”. In [2], the BCG clearance result is recorded as “promoted BCG clearance”, the “bacterial clearance in cells loaded with the Ca^2+ chelator BAPTA” value is listed as “abrogated” and the “level of infection (average fluorescence intensity of mCherry-expressing BCG)” value is “significantly lower level of infection”. Moreover, the mycobacterial burden entry in the series on BCG is “significantly reduced mycobacterial burden”. Besides, the “effect on cytosolic Ca^2+ levels” value in the series on ER/neutral Ca^2+ store is “raises cytosolic [Ca^2+ ]”.

With “glucose monomycolate [GMM from non-pathogenic M. smegmatis]”, the “Lysotracker fluorescence, NPC-like lysosomal expansion/storage” value in [4] is “minimal effects”.

Take trehalose monomycolate [TMM]: the “Lysotracker fluorescence, NPC-like lysosomal expansion/storage” value in [4] was “only modest lysosomal expansion that did not reach statistical significance”.

As for `CCCCN1C[C@H](O)[C@@H](O)[C@@H](O)[C@H]1CO` [NB-DGJ, N-butyldeoxygalactonojirimycin], in [1], the neurological side effects entry is listed as “not to cause neurological side effects” and the CNS penetration result is “penetrate the CNS”. In addition, the “inhibition of GSL biosynthesis relative to NB-DNJ” value with GSL biosynthesis was “comparably to NB-DNJ”. Besides, the “total ganglioside and GM1 content in cerebrum-brainstem” value in series [5] is “marked reduction”. The tolerability entry in [6] is “very well tolerated”.

“trehalose dimycolate [TDM from M. bovis]”: the GM1 trafficking entry in the series with NPC phenotypes is recorded as “GM1 mistrafficking”. The “LE/Lys Ca^2+ levels” value in the series on LE/Lys Ca^2+ is listed as “reduced LE/Lys Ca^2+ levels”. Besides, in the series with GSL, the GSL levels entry is “GSL accumulation”.

For the compound `OC[C@H]1O[C@@H]2O[C@H]3[C@H](O)[C@@H](O)[C@@H](O[C@H]4[C@H](O)[C@@H](O)[C@@H](O[C@H]5[C@H](O)[C@@H](O)[C@@H](O[C@H]6[C@H](O)[C@@H](O)[C@@H](O[C@H]7[C@H](O)[C@@H](O)[C@@H](O[C@H]8[C@H](O)[C@@H](O)[C@@H](O[C@H]1[C@H](O)[C@H]2O)O[C@@H]8CO)O[C@@H]7CO)O[C@@H]6CO)O[C@@H]5CO)O[C@@H]4CO)O[C@@H]3CO` [3-cyclodextrin, β-cyclodextrin], the “mycobacterial clearance, agent alone” value in [2] was “neither of these molecules alone promoted mycobacterial clearance”.

As for glucose monomycolate [GMM], the “Lysotracker fluorescence, NPC-like lysosomal expansion/storage” value in series [4] was “only modest lysosomal expansion that did not reach statistical significance”.

With `COc1ccc(/C=C/C(=O)C(C)(C)C(=O)/C=C/c2ccc(OC)c(OC)c2)cc1OC` [FLLL31], the BCG clearance result in [2] is “had no effect”. In addition, in the series with ER/neutral Ca^2+ store, the “effect on cytosolic Ca^2+ levels” value is on record as “has no effect on cytosolic Ca^2+ levels”.

`CCN(CC)CCO[C@H]1CC[C@@]2(C)C(=CC[C@@H]3[C@@H]2CC[C@]2(C)C(=O)CC[C@@H]32)C1` [U18666A]: the “clearance of M. smegmatis” value with M. smegmatis [7] and in the series on M. smegmatis [8] was “Impaired clearance of M. smegmatis” throughout. Further, the “ability to clear non-pathogenic M. smegmatis” value in the series with M. smegmatis [9] is reported as “impaired ability to clear non-pathogenic M. smegmatis”.

With trehalose dimycolate [TDM], the “Lysotracker fluorescence, NPC-like lysosomal expansion/storage” value in series [4] is reported as “greatest increase in Lysotracker fluorescence”. For the same compound, the “susceptibility of Npc1+/- macrophages (50% of wild-type NPC1 protein) to inhibition by TDM, versus wild-type” value with NPC1 is “more susceptible to inhibition”.

Values taken from patent publication US20180125796A1, “TREATMENT OF MYCOBACTERIAL INFECTION” (priority 2015, published 2018).
